The assay addresses T1, CB1-Receptor (Homo sapiens, UniProt P21554).
T1 construct: purchased Receptor Biology, Inc
As to the kind of experiment: In-vitro determination of affinity to CB1 receptor (radioligand [3H]-CP55940 binding). The settings on record: compound at 10^-6 M, transfected human CB1 receptors. The protocol: The in-vitro determination of the affinity of the inventive substituted pyrazoline compounds to CB1/CB2-receptors is carried out as described in the publication of Ruth A. Ross, Heather C. Brockie et al., "Agonist-inverse agonist characterization at CB1 and CB2 cannabinoid receptors of L-759633, L759656 and AM630", British Journal of Pharmacology, 126, 665-672, (1999), whereby the transfected human CB1 and CB2 receptors of Receptor Biology, Inc. are used. The radioligand used for both receptors is [^3H]-CP55940. The respective parts of the description are hereby incorporated by reference and forms part of the present disclosure.
The affinity of the inventive substituted pyrazoline compounds to CB1/CB2 receptors was determined as described above.

T1 sequence (P21554 whole entry): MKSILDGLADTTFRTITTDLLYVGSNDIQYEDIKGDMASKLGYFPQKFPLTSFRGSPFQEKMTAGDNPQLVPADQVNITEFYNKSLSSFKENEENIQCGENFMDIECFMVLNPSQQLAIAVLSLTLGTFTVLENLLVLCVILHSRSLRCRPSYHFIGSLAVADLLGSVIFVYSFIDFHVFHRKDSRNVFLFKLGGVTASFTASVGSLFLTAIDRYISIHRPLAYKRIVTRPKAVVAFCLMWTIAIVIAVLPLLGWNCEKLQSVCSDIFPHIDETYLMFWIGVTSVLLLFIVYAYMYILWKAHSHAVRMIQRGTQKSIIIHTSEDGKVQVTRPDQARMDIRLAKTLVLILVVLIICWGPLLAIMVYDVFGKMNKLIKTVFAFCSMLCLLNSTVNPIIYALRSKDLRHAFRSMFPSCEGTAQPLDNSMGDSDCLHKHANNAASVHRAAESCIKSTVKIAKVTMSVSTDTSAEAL

One may read the inhibition as the drop in the measured response relative to a control, in per cent. Low values mean a weak effect, high ones a strong effect. The molecule `CCCCCn1nc(-c2ccccc2)c(-c2ccc(Cl)cc2)n1` [Compound 10a, 4-(p-Chlorophenyl)-2-pentyl-5-phenyl-2H-[1,2,3]triazole] registered an inhibition at 1 µM of 22.8%.

In turn, `CCCCCn1nnc(-c2ccccc2)c1-c1ccc(Cl)cc1` [Compound 10c, 5-(p-Chlorophenyl)-1-pentyl-4-phenyl-1H-[1,2,3]triazole] displayed an inhibition at 1 µM of 21.1%.

As to `CCCCCn1nc(-c2ccc(C)cc2)c(-c2ccc(Cl)cc2Cl)n1` [Compound 11a, 4-(2,4-Dichlorophenyl)-2-pentyl-5-p-tolyl-2H-[1,2,3]triazole], the inhibition at 1 µM is 29.8%.

The molecule `Clc1ccc(-c2nn(Cc3ccc(Br)cc3)nc2-c2ccccc2)cc1` [Compound 13a, 2-(p-Bromobenzyl)-4-(p-chlorophenyl)-5-phenyl-2H-[1,2,3]triazole] registered an inhibition at 1 µM of 45.6%.

Consider `Clc1ccc(-c2nnn(Cc3ccccc3)c2-c2ccccc2)cc1` [Compound 14b, 1-Benzyl-4-(p-chlorophenyl)-5-phenyl-1H-[1,2,3]triazole], for which the inhibition at 1 µM was 24.6%.

With `Fc1cc(Br)ccc1-c1cnn(Cc2ccccc2)n1` [Compound 15a, 2-Benzyl-4-(4-bromo-2-fluorophenyl)-2H-[1,2,3]triazole], the inhibition at 1 µM was found to be 26.6%.

As to `Clc1ccc(-c2nn(C3C4CC5CC(C4)CC3C5)nc2-c2ccccc2)cc1` (stereo not shown) [Compound 19a, 2-Adamantyl-4-(p-chlorophenyl)-5-phenyl-2H-[1,2,3]triazole], the inhibition at 1 µM was determined as 23.1%.

The values are drawn from patent EP1921072A1, “1,2,3-Triazole derivatives as cannabinoid-receptor modulators” (Laboratorios del Dr. Esteve S.A., priority 2006, dated 2008).
